According to patent US20220370368A1, “ORAL PHARMACEUTICAL COMPOSITION COMPRISING A MELT-AGGLOMERATED ACTIVE INGREDIENT CORE” (Hermes Pharma GmbH, priority 2019, published 2022):

Assay: Angle of repose according to Ph.Eur. chapter 2.9.36
Format: physicochemical
Conditions: prior to agglomeration
From the text: Any flow property provisions such as “passable”, “poor” or “very poor” as used herein shall be understood as flow properties measured and ranked according to pharmacopoeial standards (e.g. European Pharmacopoeia, 6th edition, chapter 2.9.36) unless where specified otherwise: […]

For `CN(C)CCOC(c1ccccc1)c1ccccc1.Cn1c(=O)c2[nH]c(Cl)nc2n(C)c1=O` [Dimenhydrinate], the Angle of repose was 52 °.
